The target in one test is T1, MKK7 (Homo sapiens, UniProt O14733).
T1 construct: M1/R419; host or cells: HEK-293
T1 sequence (O14733 1-419): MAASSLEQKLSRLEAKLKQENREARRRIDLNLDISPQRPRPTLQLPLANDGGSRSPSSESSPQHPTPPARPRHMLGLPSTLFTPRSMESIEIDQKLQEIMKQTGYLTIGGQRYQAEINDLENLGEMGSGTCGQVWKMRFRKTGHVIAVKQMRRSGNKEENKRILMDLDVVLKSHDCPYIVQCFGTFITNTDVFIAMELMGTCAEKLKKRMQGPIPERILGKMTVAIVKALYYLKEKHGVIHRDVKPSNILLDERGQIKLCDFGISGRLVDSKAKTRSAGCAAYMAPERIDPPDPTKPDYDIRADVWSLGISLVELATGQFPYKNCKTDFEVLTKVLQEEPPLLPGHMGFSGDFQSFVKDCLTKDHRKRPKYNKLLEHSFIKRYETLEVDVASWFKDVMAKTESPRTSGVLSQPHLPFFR
Nature of the test: KINOMEscan competition binding assay, selectivity against off-target MKK7. The following applies: concentration of 100 nM. The method, then: (§1) The assay was performed by combining three components: DNA-tagged kinase; immobilized ligand; and a test compound. The ability of the test compound to compete with the immobilized ligand was measured via quantitative PCR of the DNA tag. The technology is described in detail in Fabian, M. A. et al. A small molecule-kinase interaction map for clinical kinase inhibitors. Nat. […] M. W. et al. A quantitative analysis of kinase inhibitor selectivity, Nat.
(§2) For investigation of the affinity to MKK4, MKK7 and JNK1, the kinases were produced in HEK-293 cells and subsequently tagged with DNA for qPCR detection. […] The liganded beads were blocked with excess biotin and washed with blocking buffer (SEABLOCK™ (Pierce), 1% BSA, 0.05% TWEEN®20, 1 mM DTT) to remove unbound ligand and to reduce nonspecific binding. […] All reactions were performed in polystyrene 96-well plates in a final volume of 0.135 mL. […] The kinase concentration in the eluates was measured by qPCR.
(§3) The test compounds were provided as 10 mM stock solutions. The test solutions at indicated final concentrations were prepared at DiscoverX.

For another test, the target named is T2, MEKK2 (Homo sapiens, UniProt Q9Y2U5).
T2 construct: purchased ProQinase #0583-0000-1
T2 sequence (Q9Y2U5 1-619): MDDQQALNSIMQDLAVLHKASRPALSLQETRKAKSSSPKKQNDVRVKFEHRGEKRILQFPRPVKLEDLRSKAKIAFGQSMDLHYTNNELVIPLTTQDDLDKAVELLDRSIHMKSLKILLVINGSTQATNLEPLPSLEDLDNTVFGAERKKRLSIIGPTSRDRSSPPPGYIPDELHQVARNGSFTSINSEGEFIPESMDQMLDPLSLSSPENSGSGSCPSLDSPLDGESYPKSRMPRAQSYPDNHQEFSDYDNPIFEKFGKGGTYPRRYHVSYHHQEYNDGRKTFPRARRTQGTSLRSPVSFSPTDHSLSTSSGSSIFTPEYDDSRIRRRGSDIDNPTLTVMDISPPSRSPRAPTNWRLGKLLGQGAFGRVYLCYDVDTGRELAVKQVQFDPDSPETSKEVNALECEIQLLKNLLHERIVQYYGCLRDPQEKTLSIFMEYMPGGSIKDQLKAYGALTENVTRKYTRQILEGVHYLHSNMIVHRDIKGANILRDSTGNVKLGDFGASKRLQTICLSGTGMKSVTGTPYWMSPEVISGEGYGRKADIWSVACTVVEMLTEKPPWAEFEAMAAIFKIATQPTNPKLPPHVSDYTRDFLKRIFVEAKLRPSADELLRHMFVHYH
Description: Radiometric protein kinase assay, MEKK2. The settings on record: substrate Casein, ATP 0.2 μM; read-out: MEKK2, potency derived from IC50-values. It is filed as biochemical. The protocol:
(§4) A radiometric protein kinase assay was used for measuring the kinase activity of the respective protein kinases. All kinase assays were performed in 96-well polypropylene plates. After the reactions were stopped, the assay mixtures were transferred to 96-well MSFC filter-plates (Millipore). The reaction mix was passed through the filter membrane by aspiration, the membrane was washed 3 times with 150 mM H3PO4, once with ethanol, dried and liquid scintillation cocktail was added. Radioactivity was determined by counting of the samples in a Microbeta multiwell scintillation counter (Wallac).

In another test the target is T3, MKK4 (Homo sapiens, UniProt P45985).
T3 construct: S84/D399; host or cells: HEK-293
T3 sequence (P45985 84-399): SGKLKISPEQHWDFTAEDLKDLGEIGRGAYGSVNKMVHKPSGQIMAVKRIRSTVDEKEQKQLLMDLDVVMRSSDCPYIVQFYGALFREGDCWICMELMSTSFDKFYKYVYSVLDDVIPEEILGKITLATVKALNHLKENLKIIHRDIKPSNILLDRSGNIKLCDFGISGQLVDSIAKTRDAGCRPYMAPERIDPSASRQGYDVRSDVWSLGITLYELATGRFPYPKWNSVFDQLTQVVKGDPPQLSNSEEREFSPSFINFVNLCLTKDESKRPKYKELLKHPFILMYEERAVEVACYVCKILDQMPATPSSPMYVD
Nature of the test: KINOMEscan competition binding assay, MKK4 potency. The settings on record: concentration of 100 nM. The protocol:
as §1, §2, §3

The next test has as its target T4, JNK1 (Homo sapiens, UniProt P45983).
T4 construct: M1/Q384; host or cells: HEK-293
Description: KINOMEscan competition binding assay, selectivity against off-target JNK1. The settings on record: concentration of 100 nM. The method, then:
as §1, §2, §3

The next test addresses T5, MKK4-MEKK2 mix (Homo sapiens, UniProt P45985).
T5 construct: MEKK2, recombinant, active: ProQinase product #0583-0000-1
T5 sequence (P45985 2-399): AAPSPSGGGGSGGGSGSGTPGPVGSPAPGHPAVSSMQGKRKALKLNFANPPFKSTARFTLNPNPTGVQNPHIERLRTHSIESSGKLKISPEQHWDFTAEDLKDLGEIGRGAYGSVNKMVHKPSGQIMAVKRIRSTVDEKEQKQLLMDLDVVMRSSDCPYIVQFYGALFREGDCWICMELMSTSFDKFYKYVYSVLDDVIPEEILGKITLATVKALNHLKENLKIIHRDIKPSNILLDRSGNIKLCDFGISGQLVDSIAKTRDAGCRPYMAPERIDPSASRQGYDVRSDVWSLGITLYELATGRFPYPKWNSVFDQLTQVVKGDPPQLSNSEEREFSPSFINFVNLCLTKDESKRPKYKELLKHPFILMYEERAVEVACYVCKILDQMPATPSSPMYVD
Nature of the test: Radiometric protein kinase assay, MEKK2 dependent MKK4 activation (cascade). It is filed as biochemical. The following applies: substrate JNK1 KRKR, ATP 0.2 μM, read-out: Cascade, potency derived from IC50-values. The protocol:
The activation step is done in 50 mM HEPES pH 7.5, 50 mM NaCl, 3.8 mM MgCl2, 2.5 mM DTT, 10% (v/v) glycerol. Final DMSO concentration is 1%. The activation mixture is pipetted in the following order • 2.5 μl compound in 4% DMSO • 2.5 μl ATP/MgCl2 mix • 5 μl premixed kinase solution MKK4:MEKK2 10:1 (w/w)
Protein concentrations in the activation mix are 1 μM MKK4 and 50 nM MEKK2.
as §4

Another test has as its target T6, MKK4 active (Homo sapiens, UniProt P45985).
T6 construct: purchased ProQinase #0948-0000-1
T6 sequence (P45985 1-399): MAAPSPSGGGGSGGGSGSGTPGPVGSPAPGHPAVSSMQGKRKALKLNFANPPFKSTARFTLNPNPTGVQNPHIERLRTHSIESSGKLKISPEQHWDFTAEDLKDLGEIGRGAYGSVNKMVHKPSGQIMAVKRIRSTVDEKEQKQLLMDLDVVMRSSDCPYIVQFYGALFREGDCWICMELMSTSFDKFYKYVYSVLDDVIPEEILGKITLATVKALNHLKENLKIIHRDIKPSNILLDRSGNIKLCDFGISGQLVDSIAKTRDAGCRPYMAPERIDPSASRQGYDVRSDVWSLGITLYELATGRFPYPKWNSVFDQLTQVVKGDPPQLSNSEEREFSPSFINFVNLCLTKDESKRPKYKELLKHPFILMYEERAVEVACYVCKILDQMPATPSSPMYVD
Description: Radiometric protein kinase assay, MKK4 active. Format: biochemical. The settings on record: substrate JNK1 KRKR, ATP 0.2 μM, read-out: MKK4, potency derived from IC50-values. The protocol: as §4

Another test has as its target BRaf (Homo sapiens, UniProt P15056). Nature of the test: KINOMEscan competition binding assay, selectivity against off-target BRaf. The settings on record: concentration of 100 nM. The method, then:
as §1, §3

The text below walks through data of patent US12264158B2, “Protein kinase MKK4 inhibitors for promoting liver regeneration or reducing or preventing hepatocyte death” (HEPAREGENIX GMBH, priority 2018, dated 2025).

For orientation: pIC50 means the IC50 on a negative log10 scale, so that one unit is a factor of ten.

pIC50: −log10 of the molar value.

BRaf, sequence (P15056 whole entry): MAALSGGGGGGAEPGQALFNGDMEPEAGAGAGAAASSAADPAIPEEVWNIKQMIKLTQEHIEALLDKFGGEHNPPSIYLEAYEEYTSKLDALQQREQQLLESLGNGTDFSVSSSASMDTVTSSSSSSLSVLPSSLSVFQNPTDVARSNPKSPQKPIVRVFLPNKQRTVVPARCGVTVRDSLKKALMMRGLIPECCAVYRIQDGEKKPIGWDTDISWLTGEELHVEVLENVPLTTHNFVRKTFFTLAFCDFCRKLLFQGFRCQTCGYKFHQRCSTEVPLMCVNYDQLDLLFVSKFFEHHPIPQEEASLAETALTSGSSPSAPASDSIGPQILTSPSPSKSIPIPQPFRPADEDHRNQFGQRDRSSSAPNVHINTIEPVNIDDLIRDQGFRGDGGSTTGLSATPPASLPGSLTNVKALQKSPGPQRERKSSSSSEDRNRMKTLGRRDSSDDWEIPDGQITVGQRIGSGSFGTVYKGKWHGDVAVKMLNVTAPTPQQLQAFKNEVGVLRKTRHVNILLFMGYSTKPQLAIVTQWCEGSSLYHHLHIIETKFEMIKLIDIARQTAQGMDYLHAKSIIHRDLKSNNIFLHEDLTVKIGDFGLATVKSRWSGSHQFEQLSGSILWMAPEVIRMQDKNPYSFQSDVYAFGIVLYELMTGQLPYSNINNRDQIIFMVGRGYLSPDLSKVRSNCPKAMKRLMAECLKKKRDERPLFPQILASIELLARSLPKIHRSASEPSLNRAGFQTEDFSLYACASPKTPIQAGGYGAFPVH
T4 sequence (P45983 1-384 isoform P45983-2): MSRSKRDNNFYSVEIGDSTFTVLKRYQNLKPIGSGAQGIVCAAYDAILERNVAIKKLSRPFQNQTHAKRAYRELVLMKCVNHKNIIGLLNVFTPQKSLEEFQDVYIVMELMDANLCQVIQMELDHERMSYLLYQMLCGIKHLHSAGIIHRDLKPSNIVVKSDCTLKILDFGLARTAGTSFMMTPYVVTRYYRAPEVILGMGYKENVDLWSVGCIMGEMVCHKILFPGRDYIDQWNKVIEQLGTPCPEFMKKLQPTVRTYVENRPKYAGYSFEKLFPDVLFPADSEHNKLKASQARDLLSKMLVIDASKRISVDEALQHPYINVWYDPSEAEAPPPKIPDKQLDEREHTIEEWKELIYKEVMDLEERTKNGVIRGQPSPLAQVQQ

Take `CCCS(=O)(=O)Nc1ccc(F)c(C(=O)c2n[nH]c3ncc(-c4ccc(S(=O)(=O)NC(C)=O)cc4)cc23)c1F` [Example 51k, N-((4-(3-(2,6-difluoro-3-(propylsulfonamido)benzoyl)-1H-pyrazolo[3,4-b]pyridin-5-yl)phenyl)sulfonyl)acetamide]: the “Selectivity vs. MKK7, ratio PoC(MKK7)/PoC(MKK4)” value on MKK7 is “+++ (PoC(MKK7)/PoC(MKK4) ≥ 30)”. Moreover, the results for the pIC50 on MEKK2, on MKK4-MEKK2 mix and on MKK4 active were less than 5.00, more than 6.30 and more than 6.30, respectively. Besides, the “MKK4, residual percent of control binding (PoC)” value (from here on “MKK4, residual percent”) at MKK4 is “+++ (PoC < 1)”. In addition, the “Selectivity vs. JNK1, ratio PoC(JNK1)/PoC(MKK4)” value on JNK1 was “+++ (PoC(JNK1)/PoC(MKK4) ≥ 30)”. Further, at BRaf, the “Selectivity vs. BRaf, ratio PoC(BRaf)/PoC(MKK4)” value is listed as “O (PoC(BRaf)/PoC(MKK4) < 3)”.
With `CCCS(=O)(=O)Nc1c(F)ccc(C(=O)c2n[nH]c3ncc(-c4ccccc4Cl)cc23)c1F` [Example 64, N-(3-(5-(2-chlorophenyl)-1H-pyrazolo[3,4-b]pyridine-3-carbonyl)-2,6-difluorophenyl)propane-1-sulfonamide], the negative-log IC50 (pIC50) on MKK4 active was more than 6.30.
Same read-out and setting: to `CS(=O)(=O)Nc1c(F)ccc(C(=O)c2n[nH]c3ncc(-c4ccc(C(=O)O)cc4)cc23)c1F` [Example 55, 4-[3-[2,4-difluoro-3-(methanesulfonamido)benzoyl]-1H-pyrazolo[3,4-b]pyridin-5-yl]benzoic acid] belongs more than 6.30; to `CS(=O)(=O)Nc1c(F)ccc(C(=O)c2n[nH]c3ncc(-c4ccc(S(N)(=O)=O)cc4)cc23)c1F` [Example 54c, 4-[3-[2,4-difluoro-3-(methanesulfonamido)benzoyl]-1H-pyrazolo[3,4-b]pyridin-5-yl]benzenesulfonamide], more than 6.30.
`CS(=O)(=O)Nc1c(F)ccc(C(=O)c2n[nH]c3ncc(-c4ccc(C(N)=O)cc4)cc23)c1F` [Example 54b, 4-[3-[2,4-difluoro-3-(methanesulfonamido)benzoyl]-1H-pyrazolo[3,4-b]pyridin-5-yl]benzamide]: the pIC50 at MKK4 active is more than 6.30.
Still for that read-out and setting: the result for `CCCS(=O)(=O)Nc1c(F)ccc(C(=O)c2n[nH]c3ncc(-c4ccc(O)cc4)cc23)c1F` [Example 76, N-(2,6-difluoro-3-(5-(4-hydroxyphenyl)-1H-pyrazolo[3,4-b]pyridine-3-carbonyl)phenyl)propane-1-sulfonamide] reads more than 6.30.
Take `O=C(c1ccc(F)c(NS(=O)(=O)Cc2ccccc2)c1F)c1n[nH]c2ncc(-c3ccncc3)cc12` [Example 68, N-[2,6-difluoro-3-(5-pyridin-4-yl-1H-pyrazolo[3,4-b]pyridine-3-carbonyl)phenyl]-1-phenylmethanesulfonamide]: the “Selectivity vs. MKK7, ratio PoC(MKK7)/PoC(MKK4)” value on MKK7 is reported as “+++ (PoC(MKK7)/PoC(MKK4) ≥ 30)”. Also, the “MKK4, residual percent” value at MKK4 was “+++ (PoC < 1)”. Also, the “Selectivity vs. JNK1, ratio PoC(JNK1)/PoC(MKK4)” value at JNK1 is reported as “+++ (PoC(JNK1)/PoC(MKK4) ≥ 30)”. The pIC50 on MKK4 active is more than 6.30. For the same compound, the “Selectivity vs. BRaf, ratio PoC(BRaf)/PoC(MKK4)” value at BRaf is “+++ (PoC(BRaf)/PoC(MKK4) ≥ 30)”.
`CS(=O)(=O)Nc1c(F)ccc(C(=O)c2n[nH]c3ncc(-c4ccc(-c5nnn[nH]5)cc4)cc23)c1F` [Example 54a, N-[2,6-difluoro-3-[5-[4-(1H-tetrazol-5-yl)phenyl]-1H-pyrazolo[3,4-b]pyridine-3-carbonyl]phenyl]methanesulfonamide]: the negative logarithm of the IC50 (pIC50) on MKK4 active was more than 6.30.
`CCCS(=O)(=O)Nc1c(F)ccc(C(=O)c2n[nH]c3ncc(-c4ccc(C(=O)O)cc4)cc23)c1F` [Example 62, 4-(3-(2,4-difluoro-3-(propylsulfon-amido)benzoyl)-1H-pyrazolo[3,4-b]pyridin-5-yl)benzoic acid]: the “Selectivity vs. MKK7, ratio PoC(MKK7)/PoC(MKK4)” value on MKK7 was “+++ (PoC(MKK7)/PoC(MKK4) ≥ 30)”. In addition, the “MKK4, residual percent” value at MKK4 is listed as “+++ (PoC < 1)”. For the same compound, the “Selectivity vs. JNK1, ratio PoC(JNK1)/PoC(MKK4)” value at JNK1 is “+++ (PoC(JNK1)/PoC(MKK4) ≥ 30)”. The negative-log IC50 (pIC50) on MKK4 active is more than 6.30. Moreover, at BRaf, the “Selectivity vs. BRaf, ratio PoC(BRaf)/PoC(MKK4)” value was “+++ (PoC(BRaf)/PoC(MKK4) ≥ 30)”.
For `CCCS(=O)(=O)Nc1ccc(F)c(C(=O)c2n[nH]c3ncc(-c4ccc(S(N)(=O)=O)cc4F)cc23)c1F` [Example 51m, 4-(3-(2,6-difluoro-3-(propylsulfonamido)benzoyl)-1H-pyrazolo[3,4-b]pyridin-5-yl)-3-fluorobenzenesulfonamide], the pIC50 at MEKK2 is 5.00 to 6.00; on MKK4-MEKK2 mix it was 5.00 to 6.00; at MKK4 active, more than 6.30.
On to `CCCS(=O)(=O)Nc1c(F)ccc(C(=O)c2n[nH]c3ncc(-c4ccc(S(N)(=O)=O)cc4)cc23)c1F` [Example 67, 4-(3-(2,4-difluoro-3-(propylsulfon-amido)benzoyl)-1H-pyrazolo[3,4-b]pyridin-5-yl)benzenesulfonamide], for which the pIC50 on MEKK2, at MKK4-MEKK2 mix and at MKK4 active was more than 6.30 throughout.
